The record followed here is patent US8530652B2, “Pyrrolopyrazoles, potent kinase inhibitors” (Agouron Pharmaceuticals, Inc., priority 2005, dated 2013).

SMILES strings stand for the structures. Like-named read-outs stand apart in the source and are kept apart here.

Assay [1] addresses PAK4 kinase domain (PAK4 KD) (Homo sapiens (Human), UniProt O96013). Nature of the assay: PAK4 kinase domain enzymatic assay (coupled PK/LDH, NADH absorbance at 340 nm). Type of assay: biochemical.
For assay [2], the target named is PAK4 kinase activity in whole cells (TR-293-KDG, modified HEK 293 overexpressing GEF-H1b and PAK4 KD) (Homo sapiens (Human), UniProt O96013). Nature of the assay: PAK4 cellular assay: sandwich ELISA of PAK4-dependent phosphorylation of GEF-H1b in TR-293-KDG cells. The note with it: doxycycline-induced, 3-hour exposure, phospho-GEF-H1b ELISA. Type of assay: cell-based. In outline:
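HEK 293-derived TR-293-KDG cells overexpressing GEF-H1b, with PAK4 kinase domain induced overnight by doxycycline, then exposed to compound for 3 h. Lysates captured on anti-HA plates; phospho-GEF-H1b detected by phosphospecific antibody in sandwich ELISA. EC50 from four-parameter sigmoid fit.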
Background: ELISA stands for enzyme-linked immunosorbent assay.

Setting [3] is: PAK4 kinase domain, 25 nM PAK4 KD, 0.04 mM ATP, pH 7.5.

Chain of PAK4 kinase domain (PAK4 KD) (O96013 321-572): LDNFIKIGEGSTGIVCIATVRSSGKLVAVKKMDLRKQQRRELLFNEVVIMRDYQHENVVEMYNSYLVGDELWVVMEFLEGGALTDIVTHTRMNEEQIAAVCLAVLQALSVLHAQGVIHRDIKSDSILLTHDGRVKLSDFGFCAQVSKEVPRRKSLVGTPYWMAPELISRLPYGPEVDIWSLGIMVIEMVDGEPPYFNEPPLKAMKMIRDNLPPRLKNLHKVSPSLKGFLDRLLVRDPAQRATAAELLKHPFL
Chain of PAK4 kinase activity in whole cells (TR-293-KDG, modified HEK 293 overexpressing GEF-H1b and PAK4 KD) (O96013 321-572): as above

As a reminder, the Ki is the equilibrium dissociation constant of an inhibitor or competing ligand from its target. The low end stands for tighter binding, the high end for weaker binding. As a reminder, the EC50 is the concentration that produces a half-maximal response. High values mean a less potent agent, low ones a more potent agent. In turn, `COc1nc(Nc2n[nH]c3c2CN(C(=O)NC2CC2c2ccccc2)C3(C)C)nc(N2CCC[C@H]2C#N)n1` (stereo in doubt) [Example 20, 3-({4-[(2S)-2-cyanopyrrolidin-1-yl]-6-methoxy-1,3,5-triazin-2-yl}amino)-6,6-dimethyl-N-[trans-2-phenylcyclopropyl]-4,6-dihydropyrrolo[3,4-c]pyrazole-5(1H)-carboxamide] registered a Ki in assay [1] of 90 nM. In assay [2], this compound gave a half-maximal effective concentration (EC50) of 1200 nM.

`CN(C)c1nc(Nc2n[nH]c3c2CN(C(=O)NC2C[C@@H]2c2ccccc2)C3(C)C)nc(N2CCC[C@H]2CO)n1` (stereo partly drawn) [Example 23, 3-({4-(dimethylamino)-6-[(2S)-2-(hydroxymethyl)pyrrolidin-1-yl]-1,3,5-triazin-2-yl}amino)-6,6-dimethyl-N-[trans-2-phenylcyclopropyl]-4,6-dihydropyrrolo[3,4-c]pyrazole-5(1H)-carboxamide]: the affinity in assay [1] (setting [3]) corresponds to a Ki of 140 nM. For the same compound, the 50% effective concentration (EC50) in assay [2] is over 4000 nM.

In assay [1] (setting [3]), `Cc1nc(Nc2n[nH]c3c2CN(C(=O)N[C@H]2C[C@@H]2c2ccccc2)C3(C)C)c2sccc2n1` (relative stereo) [Example 41, 6,6-dimethyl-3-[(2-methylthieno[3,2-d]pyrimidin-4-yl)amino]-N-[trans-2-phenylcyclopropyl]-4,6-dihydropyrrolo[3,4-c]pyrazole-5(1H)-carboxamide] had a Ki of 24 nM. Further, the EC50 in assay [2] stood at 147 nM.

For the compound `CC1(C)c2[nH]nc(Nc3nc(Cl)nc4ccsc34)c2CN1C(=O)N[C@@H]1C[C@H]1c1ccccc1` (relative stereo) [Example 2, 3-[(2-chlorothieno[3,2-d]pyrimidin-4-yl)amino]-6,6-dimethyl-N-[trans-2-phenylcyclopropyl]-4,6-dihydropyrrolo[3,4-c]pyrazole-5(1H)-carboxamide], the affinity in assay [1] (setting [3]), expressed as Ki, was 14 nM. In assay [2], a half-maximal response (EC50) required 36 nM.

Turning to `CN(C)C[C@@H](OC(=O)N1Cc2c(Nc3ccnc(C(F)(F)F)n3)n[nH]c2C1(C)C)c1ccccc1` [Example 76, (1S)-2-(dimethylamino)-1-phenylethyl 6,6-dimethyl-3-{[2-(trifluoromethyl)pyrimidin-4-yl]amino}-4,6-dihydropyrrolo[3,4-c]pyrazole-5(1H)-carboxylate], the Ki in assay [1] (setting [3]) amounted to 8.3 nM. In assay [2], the EC50 was under 3.9 nM.

With `CC1(C)c2[nH]nc(Nc3ncnc4ccsc34)c2CN1C(=O)N[C@H]1C[C@@H]1c1ccccc1` (relative stereo) [Example 1, 6,6-dimethyl-N-[trans-2-phenylcyclopropyl]-3-(thieno[3,2-d]pyrimidin-4-ylamino)-4,6-dihydropyrrolo[3,4-c]pyrazole-5(1H)-carboxamide], the Ki in assay [1] (setting [3]) came to 41 nM. The compound also registered an EC50 in assay [2] of over 2000 nM.

In assay [1] (setting [3]), `CC1(C)c2[nH]nc(Nc3ncnc4ccsc34)c2CN1C(=O)N[C@@H]1C[C@H]1c1ccccc1` [Example 51, 6,6-dimethyl-N-[(1R,2S)-2-phenylcyclopropyl]-3-(thieno[3,2-d]pyrimidin-4-ylamino)-4,6-dihydropyrrolo[3,4-c]pyrazole-5(1H)-carboxamide] came in with a Ki of 18 nM. The compound further registered an EC50 in assay [2] of 31 nM.

Take `COc1ncc(F)c(Nc2n[nH]c3c2CN(C(=O)O[C@H](CN(C)C)c2ccccc2)C3(C)C)n1` [Example 79, (1S)-2-(dimethylamino)-1-phenylethyl 3-[(5-fluoro-2-methoxypyrimidin-4-yl)amino]-6,6-dimethyl-4,6-dihydropyrrolo[3,4-c]pyrazole-5(1H)-carboxylate]: the Ki in assay [1] (setting [3]) amounted to 39 nM. The same compound showed an EC50 in assay [2] of under 3.9 nM.

In turn, `COc1ncc(F)c(Nc2n[nH]c3c2CN(C(=O)N[C@H](CN(C)C)c2ccccc2)C3(C)C)n1` [Example 66, N-[(1S)-2-(dimethylamino)-1-phenylethyl]-3-[(5-fluoro-2-methoxypyrimidin-4-yl)amino]-6,6-dimethyl-4,6-dihydropyrrolo[3,4-c]pyrazole-5(1H)-carboxamide] gave a Ki in assay [1] (setting [3]) of 170 nM. This compound also yielded an EC50 in assay [2] of under 3.9 nM.

`COc1nc(Nc2n[nH]c3c2CN(C(=O)NC2C[C@@H]2c2ccccc2)C3(C)C)nc(N2CCC[C@H]2CO)n1` (stereo partly drawn) [Example 16, 3-({4-[(2S)-2-(hydroxymethyl)pyrrolidin-1-yl]-6-methoxy-1,3,5-triazin-2-yl}amino)-6,6-dimethyl-N-[trans-2-phenylcyclopropyl]-4,6-dihydropyrrolo[3,4-c]pyrazole-5(1H)-carboxamide] returned a Ki in assay [1] (setting [3]) of 76 nM. The response in assay [2] was half-maximal at 1270 nM (EC50).

Turning to `CN(C)C[C@@H](NC(=O)N1Cc2c(Nc3ncncc3F)n[nH]c2C1(C)C)c1ccccc1` [Example 67, N-[(1S)-2-(dimethylamino)-1-phenylethyl]-3-[(5-fluoropyrimidin-4-yl)amino]-6,6-dimethyl-4,6-dihydropyrrolo[3,4-c]pyrazole-5(1H)-carboxamide], in assay [1] (setting [3]), the affinity, expressed as Ki, was 280 nM. Further, a half-maximal effect in assay [2] (EC50) was put at 20 nM.

In assay [1] (setting [3]), `Cc1ncnc(Nc2n[nH]c3c2CN(C(=O)O[C@H](CN(C)C)c2ccccc2)C3(C)C)c1F` [Example 77, (1S)-2-(dimethylamino)-1-phenylethyl 3-[(5-fluoro-6-methylpyrimidin-4-yl)amino]-6,6-dimethyl-4,6-dihydropyrrolo[3,4-c]pyrazole-5(1H)-carboxylate] registered an inhibition constant Ki of 93 nM. Also, the response in assay [2] was half-maximal at 69 nM (EC50).

In assay [1] (setting [3]), `CCOc1ncc(F)c(Nc2n[nH]c3c2CN(C(=O)N[C@H](CN(C)C)c2ccccc2)C3(C)C)n1` [Example 59, N-[(1S)-2-(dimethylamino)-1-phenylethyl]-3-[(2-ethoxy-5-fluoropyrimidin-4-yl)amino]-6,6-dimethyl-4,6-dihydropyrrolo[3,4-c]pyrazole-5(1H)-carboxamide] had a Ki of 170 nM. In assay [2], this compound yielded an EC50 of 2.4 nM.

The compound `CC1(C)c2[nH]nc(Nc3ccnc(C(F)(F)F)n3)c2CN1C(=O)N[C@H]1C[C@@H]1c1ccccc1` (relative stereo) [Example 30, 6,6-dimethyl-N-[trans-2-phenylcyclopropyl]-3-{[2-(trifluoromethyl)pyrimidin-4-yl]amino}-4,6-dihydropyrrolo[3,4-c]pyrazole-5(1H)-carboxamide] gave a Ki in assay [1] (setting [3]) of 80 nM. The EC50 in assay [2] was 968 nM.

In assay [1] (setting [3]), `Cc1nc(Nc2n[nH]c3c2CN(C(=O)N[C@@H]2C[C@H]2c2ccccc2)C3(C)C)c2ccccc2n1` (relative stereo) [Example 84, 3-[(2-methylquinazolin-4-yl)amino]-6,6-dimethyl-N-[trans-2-phenylcyclopropyl]-4,6-dihydropyrrolo[3,4-c]pyrazole-5(1H)-carboxamide] showed a Ki of 34 nM. The compound further displayed an EC50 in assay [2] of 455 nM.

Consider `CN(C)C[C@@H](OC(=O)N1Cc2c(Nc3nc(C#N)nc4ccccc34)n[nH]c2C1(C)C)c1ccccc1` [Example 74, (1S)-2-(dimethylamino)-1-phenylethyl 3-[(2-cyanoquinazolin-4-yl)amino]-6,6-dimethyl-4,6-dihydropyrrolo[3,4-c]pyrazole-5(1H)-carboxylate], for which the Ki in assay [1] (setting [3]) was found to be 3.6 nM. Moreover, the EC50 in assay [2] is under 3.9 nM.

As to `CCOc1ncc(F)c(Nc2n[nH]c3c2CN(C(=O)O[C@H](CN(C)C)c2ccccc2)C3(C)C)n1` [Example 72, (1S)-2-(dimethylamino)-1-phenylethyl 3-[(2-ethoxy-5-fluoropyrimidin-4-yl)amino]-6,6-dimethyl-4,6-dihydro-pyrrolo[3,4-c]pyrazole-5(1H)-carboxylate], the Ki in assay [1] (setting [3]) stood at 16 nM. This compound also gave an EC50 in assay [2] of 4.4 nM.
